Where two headings read alike, the source gives them in different places.

Common to all, as to assay type: binding
In assay [1] the target is kinases (KINOMEscan panel) (Homo sapiens, UniProt P42684). Conditions: ABL2; NEW KINOMEscan.
The target of assay [2] is kinases (KINOMEscan panel) (Homo sapiens, UniProt Q9BQI3).
For assay [3], the target named is T1, kinases (KINOMEscan panel) (Homo sapiens, UniProt Q8TBX8).
T1 sequence (Q8TBX8 1-421): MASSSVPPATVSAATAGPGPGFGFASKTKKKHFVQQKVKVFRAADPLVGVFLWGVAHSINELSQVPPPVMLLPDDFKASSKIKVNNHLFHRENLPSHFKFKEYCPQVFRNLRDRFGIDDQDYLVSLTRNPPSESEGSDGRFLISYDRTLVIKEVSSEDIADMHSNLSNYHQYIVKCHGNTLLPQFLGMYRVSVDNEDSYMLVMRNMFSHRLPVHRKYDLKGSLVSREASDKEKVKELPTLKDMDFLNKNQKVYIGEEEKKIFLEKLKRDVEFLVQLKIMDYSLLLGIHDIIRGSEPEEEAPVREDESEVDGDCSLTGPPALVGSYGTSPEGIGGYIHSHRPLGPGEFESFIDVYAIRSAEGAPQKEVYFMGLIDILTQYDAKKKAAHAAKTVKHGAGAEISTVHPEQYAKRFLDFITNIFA
The following applies: PIP4K2C; NEW KINOMEscan.

Assay [4] deals with kinases (KINOMEscan panel) (Homo sapiens, UniProt Q9HCP0). The following applies: kinase CSNK1G1; NEW KINOMEscan.
Sequence of kinases (KINOMEscan panel) (Homo sapiens, UniProt Q9HCP0) (Q9HCP0 whole entry): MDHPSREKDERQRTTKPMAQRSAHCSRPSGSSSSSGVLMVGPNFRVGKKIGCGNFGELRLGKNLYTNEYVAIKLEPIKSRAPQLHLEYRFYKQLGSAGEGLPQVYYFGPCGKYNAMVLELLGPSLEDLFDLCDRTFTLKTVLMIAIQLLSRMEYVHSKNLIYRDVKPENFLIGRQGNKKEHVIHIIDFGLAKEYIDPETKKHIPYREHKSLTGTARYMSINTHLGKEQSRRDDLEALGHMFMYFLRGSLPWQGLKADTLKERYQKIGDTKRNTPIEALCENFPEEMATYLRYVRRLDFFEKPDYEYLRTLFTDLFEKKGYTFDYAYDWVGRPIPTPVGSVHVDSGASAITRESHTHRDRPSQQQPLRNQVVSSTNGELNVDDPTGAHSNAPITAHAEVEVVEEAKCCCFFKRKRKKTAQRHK
Assay [5] deals with T2, kinases (KINOMEscan panel) (Homo sapiens, UniProt Q9UF33).
T2 sequence (Q9UF33 23-1036): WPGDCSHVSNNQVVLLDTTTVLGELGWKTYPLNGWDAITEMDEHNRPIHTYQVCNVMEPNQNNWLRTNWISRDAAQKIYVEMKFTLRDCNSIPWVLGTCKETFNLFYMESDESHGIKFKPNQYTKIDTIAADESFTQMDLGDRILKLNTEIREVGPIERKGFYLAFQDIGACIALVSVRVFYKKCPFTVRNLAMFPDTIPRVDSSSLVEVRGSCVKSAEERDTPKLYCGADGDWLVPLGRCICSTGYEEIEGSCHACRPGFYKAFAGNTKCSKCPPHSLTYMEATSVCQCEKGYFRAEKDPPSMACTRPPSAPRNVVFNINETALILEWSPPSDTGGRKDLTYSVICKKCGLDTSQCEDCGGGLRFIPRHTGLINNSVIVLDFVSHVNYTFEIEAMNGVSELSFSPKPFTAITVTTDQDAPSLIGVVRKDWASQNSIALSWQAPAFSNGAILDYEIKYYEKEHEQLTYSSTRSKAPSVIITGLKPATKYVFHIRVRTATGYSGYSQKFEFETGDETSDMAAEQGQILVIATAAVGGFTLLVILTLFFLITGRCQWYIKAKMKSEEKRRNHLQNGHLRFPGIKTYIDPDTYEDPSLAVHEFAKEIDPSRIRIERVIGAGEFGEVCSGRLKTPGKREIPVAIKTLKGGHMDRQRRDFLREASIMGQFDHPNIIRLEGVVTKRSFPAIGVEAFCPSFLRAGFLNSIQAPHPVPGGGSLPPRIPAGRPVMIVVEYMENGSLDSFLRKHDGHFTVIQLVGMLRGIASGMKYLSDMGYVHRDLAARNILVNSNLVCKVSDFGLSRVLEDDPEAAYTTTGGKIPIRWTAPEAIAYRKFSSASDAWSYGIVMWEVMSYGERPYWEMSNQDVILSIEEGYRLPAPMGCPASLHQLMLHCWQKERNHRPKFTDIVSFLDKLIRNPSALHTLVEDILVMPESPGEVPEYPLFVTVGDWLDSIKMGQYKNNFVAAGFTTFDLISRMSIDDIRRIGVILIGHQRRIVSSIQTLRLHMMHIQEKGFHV
The following applies: kinase EPHA6; NEW KINOMEscan.

In assay [6] the target is kinases (KINOMEscan panel) (Homo sapiens, UniProt P10721, D816H). The following applies: NEW KINOMEscan.
Sequence of kinases (KINOMEscan panel) (Homo sapiens, UniProt P10721, D816H) (P10721 26-976 D816H): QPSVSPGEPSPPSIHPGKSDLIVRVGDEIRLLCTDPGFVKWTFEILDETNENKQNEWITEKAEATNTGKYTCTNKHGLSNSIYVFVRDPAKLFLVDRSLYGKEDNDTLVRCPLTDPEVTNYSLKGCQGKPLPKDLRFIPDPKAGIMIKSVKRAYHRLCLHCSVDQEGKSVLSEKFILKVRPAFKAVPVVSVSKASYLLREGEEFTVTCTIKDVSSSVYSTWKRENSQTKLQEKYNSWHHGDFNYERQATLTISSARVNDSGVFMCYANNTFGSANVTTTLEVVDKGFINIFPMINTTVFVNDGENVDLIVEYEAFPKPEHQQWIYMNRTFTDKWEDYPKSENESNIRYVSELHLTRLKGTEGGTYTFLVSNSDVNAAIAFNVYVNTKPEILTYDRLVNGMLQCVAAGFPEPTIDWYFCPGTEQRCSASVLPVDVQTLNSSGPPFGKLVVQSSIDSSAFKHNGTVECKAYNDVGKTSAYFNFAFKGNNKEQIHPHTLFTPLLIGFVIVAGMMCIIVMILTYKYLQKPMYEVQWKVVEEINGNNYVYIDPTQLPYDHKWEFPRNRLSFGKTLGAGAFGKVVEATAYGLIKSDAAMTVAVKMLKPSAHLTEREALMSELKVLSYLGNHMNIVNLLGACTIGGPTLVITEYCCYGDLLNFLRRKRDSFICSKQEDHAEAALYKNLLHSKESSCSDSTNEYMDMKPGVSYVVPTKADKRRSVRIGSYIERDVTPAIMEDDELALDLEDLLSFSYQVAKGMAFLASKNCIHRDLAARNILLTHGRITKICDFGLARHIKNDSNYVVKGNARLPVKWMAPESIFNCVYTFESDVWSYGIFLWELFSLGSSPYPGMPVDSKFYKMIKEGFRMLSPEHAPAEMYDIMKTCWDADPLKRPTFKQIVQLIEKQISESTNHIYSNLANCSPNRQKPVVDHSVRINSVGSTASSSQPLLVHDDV
Assay [7] has as its target T3, kinases (KINOMEscan panel) (Homo sapiens, UniProt Q8IW41).
T3 sequence (Q8IW41 1-473): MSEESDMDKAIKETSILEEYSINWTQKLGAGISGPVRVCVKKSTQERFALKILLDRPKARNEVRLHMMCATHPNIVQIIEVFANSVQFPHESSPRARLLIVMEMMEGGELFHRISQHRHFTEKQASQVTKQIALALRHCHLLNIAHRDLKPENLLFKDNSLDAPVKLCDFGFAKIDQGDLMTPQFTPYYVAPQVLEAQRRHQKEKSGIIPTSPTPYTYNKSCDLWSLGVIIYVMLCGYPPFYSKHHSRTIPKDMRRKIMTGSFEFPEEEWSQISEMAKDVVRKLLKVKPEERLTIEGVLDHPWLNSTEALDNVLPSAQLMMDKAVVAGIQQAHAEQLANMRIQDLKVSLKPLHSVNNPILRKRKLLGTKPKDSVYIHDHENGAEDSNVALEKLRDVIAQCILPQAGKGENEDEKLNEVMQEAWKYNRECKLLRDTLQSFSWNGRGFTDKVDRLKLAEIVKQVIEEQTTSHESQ

For assay [8], the target named is T4, kinases (KINOMEscan panel) (Homo sapiens, UniProt P78356).
T4 sequence (P78356 1-416): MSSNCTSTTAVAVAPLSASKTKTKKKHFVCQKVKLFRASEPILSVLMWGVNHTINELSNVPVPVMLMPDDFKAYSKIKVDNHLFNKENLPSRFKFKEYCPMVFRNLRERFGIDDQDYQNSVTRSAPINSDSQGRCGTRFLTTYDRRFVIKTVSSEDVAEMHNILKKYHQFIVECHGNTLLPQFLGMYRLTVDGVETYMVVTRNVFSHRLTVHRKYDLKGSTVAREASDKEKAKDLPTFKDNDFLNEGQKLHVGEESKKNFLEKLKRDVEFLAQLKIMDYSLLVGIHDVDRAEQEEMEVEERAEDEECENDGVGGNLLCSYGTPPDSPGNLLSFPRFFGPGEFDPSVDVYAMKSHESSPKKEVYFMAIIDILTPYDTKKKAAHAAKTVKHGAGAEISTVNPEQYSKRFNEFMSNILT
The following applies: PIP4K2B; NEW KINOMEscan.

Assay [9] has as its target kinases (KINOMEscan panel) (Homo sapiens, UniProt Q9P0L2). Conditions: NEW KINOMEscan.
The target in assay [10] is kinases (KINOMEscan panel) (Homo sapiens, UniProt Q00532). Conditions: CDKL1; NEW KINOMEscan.
Sequence of kinases (KINOMEscan panel) (Homo sapiens, UniProt Q00532) (Q00532 whole entry): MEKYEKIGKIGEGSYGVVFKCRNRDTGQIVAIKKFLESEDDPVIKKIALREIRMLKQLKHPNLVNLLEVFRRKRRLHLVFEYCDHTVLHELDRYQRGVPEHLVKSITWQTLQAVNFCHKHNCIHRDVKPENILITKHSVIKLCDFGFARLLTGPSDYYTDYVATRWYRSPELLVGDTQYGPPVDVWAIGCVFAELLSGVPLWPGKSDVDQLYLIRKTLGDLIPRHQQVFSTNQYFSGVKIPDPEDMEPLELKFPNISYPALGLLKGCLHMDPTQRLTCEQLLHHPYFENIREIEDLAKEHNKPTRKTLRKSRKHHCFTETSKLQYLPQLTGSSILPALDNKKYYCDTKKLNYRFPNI
The target in assay [11] is kinases (KINOMEscan panel) (Homo sapiens, UniProt Q9H0K1). The following applies: kinase SIK2; NEW KINOMEscan.
Sequence of kinases (KINOMEscan panel) (Homo sapiens, UniProt Q9H0K1) (Q9H0K1 whole entry): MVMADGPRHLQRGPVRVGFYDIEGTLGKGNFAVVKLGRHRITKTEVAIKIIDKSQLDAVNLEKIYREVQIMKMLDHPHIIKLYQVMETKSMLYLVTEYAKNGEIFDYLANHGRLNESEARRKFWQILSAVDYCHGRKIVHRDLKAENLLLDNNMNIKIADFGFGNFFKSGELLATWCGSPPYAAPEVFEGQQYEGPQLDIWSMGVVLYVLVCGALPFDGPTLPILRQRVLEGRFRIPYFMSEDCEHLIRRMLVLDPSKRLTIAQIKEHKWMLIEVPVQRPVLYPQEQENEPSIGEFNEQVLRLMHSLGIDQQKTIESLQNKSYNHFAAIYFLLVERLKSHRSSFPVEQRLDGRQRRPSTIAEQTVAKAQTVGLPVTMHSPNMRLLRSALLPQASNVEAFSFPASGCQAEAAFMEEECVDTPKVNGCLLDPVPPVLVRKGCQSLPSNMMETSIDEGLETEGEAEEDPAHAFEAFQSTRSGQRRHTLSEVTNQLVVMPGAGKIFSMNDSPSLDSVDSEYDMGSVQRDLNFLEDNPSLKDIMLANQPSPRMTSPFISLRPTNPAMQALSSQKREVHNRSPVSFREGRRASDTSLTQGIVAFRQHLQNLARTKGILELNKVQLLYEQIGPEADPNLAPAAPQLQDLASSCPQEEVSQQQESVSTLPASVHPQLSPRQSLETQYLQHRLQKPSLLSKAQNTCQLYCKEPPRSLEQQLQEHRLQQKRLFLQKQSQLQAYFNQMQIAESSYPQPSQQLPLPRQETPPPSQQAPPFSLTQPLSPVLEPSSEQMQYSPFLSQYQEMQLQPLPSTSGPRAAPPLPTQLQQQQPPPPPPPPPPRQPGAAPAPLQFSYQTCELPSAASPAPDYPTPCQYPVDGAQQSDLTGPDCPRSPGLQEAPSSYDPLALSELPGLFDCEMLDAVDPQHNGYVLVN

Sequence of kinases (KINOMEscan panel) (Homo sapiens, UniProt Q9P0L2) (Q9P0L2 whole entry): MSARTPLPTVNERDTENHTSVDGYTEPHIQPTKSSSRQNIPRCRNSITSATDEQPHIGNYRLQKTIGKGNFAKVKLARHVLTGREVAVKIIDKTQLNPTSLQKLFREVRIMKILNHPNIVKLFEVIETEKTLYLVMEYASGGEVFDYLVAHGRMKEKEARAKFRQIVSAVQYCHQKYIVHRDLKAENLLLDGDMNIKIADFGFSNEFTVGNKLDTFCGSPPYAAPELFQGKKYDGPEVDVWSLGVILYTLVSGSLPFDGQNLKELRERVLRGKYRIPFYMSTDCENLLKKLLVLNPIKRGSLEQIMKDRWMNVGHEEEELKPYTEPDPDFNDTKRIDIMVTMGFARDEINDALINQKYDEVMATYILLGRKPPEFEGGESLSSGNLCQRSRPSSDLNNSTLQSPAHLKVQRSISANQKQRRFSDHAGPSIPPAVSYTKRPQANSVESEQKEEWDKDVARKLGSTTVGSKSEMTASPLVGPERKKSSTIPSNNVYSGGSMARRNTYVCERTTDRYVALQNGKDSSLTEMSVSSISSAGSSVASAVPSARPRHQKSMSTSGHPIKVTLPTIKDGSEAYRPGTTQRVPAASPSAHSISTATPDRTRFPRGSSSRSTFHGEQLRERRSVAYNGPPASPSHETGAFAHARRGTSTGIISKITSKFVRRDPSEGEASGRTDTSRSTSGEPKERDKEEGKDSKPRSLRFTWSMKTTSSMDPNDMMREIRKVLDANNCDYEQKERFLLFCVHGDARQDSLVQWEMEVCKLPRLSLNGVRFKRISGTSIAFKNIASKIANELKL
Sequence of kinases (KINOMEscan panel) (Homo sapiens, UniProt Q9BQI3) (Q9BQI3 whole entry): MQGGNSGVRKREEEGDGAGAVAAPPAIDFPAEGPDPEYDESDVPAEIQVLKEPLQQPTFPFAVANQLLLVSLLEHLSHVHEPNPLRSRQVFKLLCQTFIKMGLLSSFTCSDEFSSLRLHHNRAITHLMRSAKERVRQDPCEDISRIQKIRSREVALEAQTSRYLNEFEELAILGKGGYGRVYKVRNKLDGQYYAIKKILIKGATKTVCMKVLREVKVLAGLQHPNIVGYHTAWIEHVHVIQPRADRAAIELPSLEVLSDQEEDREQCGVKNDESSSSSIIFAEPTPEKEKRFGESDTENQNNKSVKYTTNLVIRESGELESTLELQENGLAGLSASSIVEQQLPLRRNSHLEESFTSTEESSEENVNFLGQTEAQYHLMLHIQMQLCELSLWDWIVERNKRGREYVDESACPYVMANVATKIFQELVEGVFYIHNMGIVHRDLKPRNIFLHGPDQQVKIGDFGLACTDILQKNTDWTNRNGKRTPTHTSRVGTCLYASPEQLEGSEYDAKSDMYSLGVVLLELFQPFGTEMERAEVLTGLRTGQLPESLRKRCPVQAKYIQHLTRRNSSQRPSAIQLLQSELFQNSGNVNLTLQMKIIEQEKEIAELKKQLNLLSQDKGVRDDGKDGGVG

On to `Cc1cccc(-c2nc(N(C)c3ccc4ncsc4c3)c3ccccc3n2)n1` [NK-161], for which, in [1], the “KINOMEscan ABL2” value was determined as 8. Besides, in [2], the “KINOMEscan ElF2AK2/EIF2AK1” value was 1. The “KINOMEscan PIP4K2C” value in assay [3] is reported as 0. For the same compound, in assay [4], the “KINOMEscan CSNK1G1” value came to 0. The “KINOMEscan EPHA6” value in [5] was determined as 5. Moreover, the “KINOMEscan KIT(D816H)” value in [6] is 16. Besides, the “KINOMEscan MAPKAPK5” value in assay [7] is recorded as 0. The “KINOMEscan PIP4K2B” value in assay [8] was found to be 0. The “KINOMEscan MARK1” value in [9] is listed as 13. In addition, in assay [10], the “KINOMEscan CDKL1” value turned out to be 36. Moreover, the “KINOMEscan SIK2” value in [11] is on record as 0.

For `Cc1cccc(-c2nc(Nc3ccc4nn(C)cc4c3)c3ccccc3n2)n1` [NK167], the “KINOMEscan ABL2” value in assay [1] is recorded as 0. For the same compound, the “KINOMEscan ElF2AK2/EIF2AK1” value in [2] stood at 0. Besides, in assay [3], the “KINOMEscan PIP4K2C” value was 0. Moreover, in [4], the “KINOMEscan CSNK1G1” value came to 0. Besides, the “KINOMEscan EPHA6” value in assay [5] was found to be 0. In addition, the “KINOMEscan KIT(D816H)” value in [6] was 13. Further, the “KINOMEscan MAPKAPK5” value in assay [7] (MAPKAPK5, NEW KINOMEscan) was found to be 0. In assay [8], the “KINOMEscan PIP4K2B” value was 0. Besides, the “KINOMEscan MARK1” value in [9] is reported as 21. The “KINOMEscan CDKL1” value in assay [10] is 44. Also, the “KINOMEscan SIK2” value in assay [11] is 0.

Values taken from paper PMC9851200, “Multiparameter phenotypic screening for endogenous TFEB and TFE3 translocation identifies novel chemical series modulating lysosome function” (Autophagy, 2022).
